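Growth conditions: 96-well plates. Treatment: test compound, 48 hours, 5 concentrations. Analysis: linear interpolation between bracketing concentrations; unreached endpoints set to highest concentration. GI50 is the concentration that inhibits growth by half. TGI: concentration producing complete growth inhibition.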
Key:
Assay in all cases: inhibition of tumour cell growth, NCI panel, 48 h
CCRF-CEM leukemia = tested on: CCRF-CEM leukemia
COLO 205 colon = tested on: COLO 205 colon
DU-145 prostate = tested on: DU-145 prostate
HCT-116 colon = tested on: HCT-116 colon
K-562 leukemia = tested on: K-562 leukemia
KM12 colon = tested on: KM12 colon
LOX IMVI melanoma = tested on: LOX IMVI melanoma
MOLT-4 leukemia = tested on: MOLT-4 leukemia
NCI-H23 lung = tested on: NCI-H23 lung
OVCAR-3 ovarian = tested on: OVCAR-3 ovarian

Compound | TGI (CCRF-CEM leukemia) | TGI (COLO 205 colon) | TGI (DU-145 prostate) | TGI (HCT-116 colon) | TGI (K-562 leukemia) | TGI (KM12 colon) | TGI (LOX IMVI melanoma) | TGI (MOLT-4 leukemia) | TGI (NCI-H23 lung) | TGI (OVCAR-3 ovarian) | GI50 (CCRF-CEM leukemia) | GI50 (COLO 205 colon) | GI50 (DU-145 prostate) | GI50 (HCT-116 colon) | GI50 (K-562 leukemia) | GI50 (KM12 colon) | GI50 (LOX IMVI melanoma) | GI50 (MOLT-4 leukemia) | GI50 (NCI-H23 lung) | GI50 (OVCAR-3 ovarian)
COc1ccc2c(Cc3c4ccccc4cc4ccccc34)cncc2c1O | 3.04 µM | 34.4 µM | > 22.4 µM | 16.1 µM | 12.8 µM | 8.69 µM | 8.5 µM | 8.82 µM | 85.3 µM | 8.97 µM |  |  |  |  |  |  |  |  |  | 
NC(=S)N/N=C/c1ccc(N)cn1 | > 10 µM | 8.03 µM | 7.76 µM | > 10 µM | > 10 µM | > 10 µM | > 10 µM | > 10 µM | > 8.9 µM | > 10 µM |  |  |  |  |  |  |  |  |  | 
C=C1CCC2C3(C)COC(c4c(OC)cccc4OC)OC3CCC2(C)C1C/C=C1/C(=O)OCC1O (stereo not given) | 5.75 µM | 4.95 µM | 7.87 µM | 3.11 µM | 6.28 µM | 4.99 µM | 3.25 µM | 13.3 µM | 15 µM | 3.95 µM | 1.86 µM | 2.23 µM | 2.96 µM | 1.64 µM | 1.41 µM | 2.21 µM | 1.63 µM | 3.22 µM | 3.98 µM | 1.94 µM
CC[C@@H](C(=O)[C@H](C)[C@H](O)[C@@H](C)[C@H]1O[C@H]([C@@H](CC)C(=O)O)CC[C@H]1C)C1O[C@]2(C=C[C@@H](O)[C@]3(CC[C@@](C)([C@H]4CC[C@](O)(CC)[C@H](C)O4)O3)O2)[C@H](C)C[C@@H]1C (stereo not given in full) | 12.3 µM | 4.68 µM | 29.3 µM | 35.7 µM | 7.06 µM | 12.9 µM | 6.56 µM | 4.75 µM | 7.24 µM | 18.8 µM | 0.283 µM | 0.203 µM | 1.06 µM | 0.722 µM | 0.223 µM | 0.723 µM | 0.706 µM | 1.26 µM | 0.296 µM | 0.0842 µM
Cc1ccc(/C=C/C(=N/N=C(N)N)c2ccccc2)cc1 | 18.9 µM | 3.74 µM | 10.8 µM | 12.2 µM | 10.4 µM | 13.2 µM | 15.5 µM | 9.1 µM | 11.8 µM | 6.03 µM | 2.34 µM | 1.69 µM | 3.33 µM | 3.05 µM | 0.889 µM | 2.97 µM | 3.28 µM | 3.01 µM | 2.76 µM | 2.28 µM
Nc1ccccc1NC(=O)c1ccc(CN2CCC/C(=C\c3ccccn3)C2=O)cc1 | > 100 µM | 3.9 µM | > 100 µM | > 100 µM | > 100 µM | > 100 µM | 3.07 µM | > 100 µM | > 100 µM | > 100 µM | 0.645 µM | 1.15 µM | 3.15 µM | 0.381 µM | 0.414 µM | 1.53 µM | 0.696 µM | 1.26 µM | 2.11 µM | 2.37 µM
COc1cc2oc(-c3ccc(O)cc3O)c(CC=C(C)C)c(=O)c2c(O)c1/C=C/C(C)C | 5.07 µM | 10.3 µM | 11 µM | 3.93 µM | 4.64 µM | 7.51 µM | 3.32 µM | 5.24 µM | 8.87 µM | 4.94 µM |  |  |  |  |  |  |  |  |  | 
CCCCCCCCCCC/C=C\C[C@H](O)C/C=C1/C(=O)C=C[C@@H]1C/C=C\CCCC(=O)OC | 5.36 µM | 3.83 µM | 5.57 µM | 1.83 µM | 3.2 µM | 2.45 µM | 1.05 µM | 2.71 µM | 1.58 µM | 1.49 µM | 0.923 µM | 1.21 µM | 1.35 µM | 0.734 µM | 0.898 µM | 0.852 µM | 0.536 µM | 0.838 µM | 0.687 µM | 0.671 µM
C[N+](C)(CCCCCC[N+](C)(C)CCCN1C(=O)c2cc3ccccc3cc2C1=O)CCCN1C(=O)c2cc3ccccc3cc2C1=O | > 37.5 µM | > 37.5 µM | > 37.5 µM | > 37.5 µM | > 37.5 µM | > 37.5 µM | > 37.5 µM | > 37.5 µM | > 37.5 µM | > 37.5 µM | > 37.5 µM | > 37.5 µM | > 37.5 µM | > 37.5 µM | > 37.5 µM | > 37.5 µM | > 37.5 µM | > 37.5 µM | > 37.5 µM | > 37.5 µM
COc1cccc(-n2cc(-c3nc(Nc4cc(C)[nH]n4)c4ccccc4n3)nn2)c1 | 16.8 µM | 15.9 µM | 11.7 µM | 10.5 µM | 14.7 µM | 7.39 µM | 12.3 µM | 9.8 µM | 22.4 µM | 12.6 µM | 2.82 µM | 6.8 µM | 5.51 µM | 2.1 µM | 2.59 µM | 1.69 µM | 5.15 µM | 2.01 µM | 6.28 µM | 5.71 µM

Source: PubChem BioAssay (NCI)
